Laboratory results: the kinase profiling compilation of Christmann-Franck et al. (2016)

Key:
ABL1 (human) = ABL1 (human) (UniProt P00519); experiment: SelectScreen, TR FRET
ERBB2 (human) = ERBB2 (human) (UniProt P04626); experiment: SelectScreen, TR FRET
KDR (human) = KDR (human) (UniProt P35968); experiment: SelectScreen, TR FRET
MAPK13 (human) = MAPK13 (human) (UniProt O15264); experiment: SelectScreen, TR FRET
MAPK8 (human) = MAPK8 (human) (UniProt P45983); experiment: SelectScreen, TR FRET
MAPK9 (human) = MAPK9 (human) (UniProt P45984); experiment: SelectScreen, TR FRET
MARK2 (human) = MARK2 (human) (UniProt Q7KZI7); experiment: SelectScreen, TR FRET
MARK2 (human), sequence (Q7KZI7 whole entry, looked up): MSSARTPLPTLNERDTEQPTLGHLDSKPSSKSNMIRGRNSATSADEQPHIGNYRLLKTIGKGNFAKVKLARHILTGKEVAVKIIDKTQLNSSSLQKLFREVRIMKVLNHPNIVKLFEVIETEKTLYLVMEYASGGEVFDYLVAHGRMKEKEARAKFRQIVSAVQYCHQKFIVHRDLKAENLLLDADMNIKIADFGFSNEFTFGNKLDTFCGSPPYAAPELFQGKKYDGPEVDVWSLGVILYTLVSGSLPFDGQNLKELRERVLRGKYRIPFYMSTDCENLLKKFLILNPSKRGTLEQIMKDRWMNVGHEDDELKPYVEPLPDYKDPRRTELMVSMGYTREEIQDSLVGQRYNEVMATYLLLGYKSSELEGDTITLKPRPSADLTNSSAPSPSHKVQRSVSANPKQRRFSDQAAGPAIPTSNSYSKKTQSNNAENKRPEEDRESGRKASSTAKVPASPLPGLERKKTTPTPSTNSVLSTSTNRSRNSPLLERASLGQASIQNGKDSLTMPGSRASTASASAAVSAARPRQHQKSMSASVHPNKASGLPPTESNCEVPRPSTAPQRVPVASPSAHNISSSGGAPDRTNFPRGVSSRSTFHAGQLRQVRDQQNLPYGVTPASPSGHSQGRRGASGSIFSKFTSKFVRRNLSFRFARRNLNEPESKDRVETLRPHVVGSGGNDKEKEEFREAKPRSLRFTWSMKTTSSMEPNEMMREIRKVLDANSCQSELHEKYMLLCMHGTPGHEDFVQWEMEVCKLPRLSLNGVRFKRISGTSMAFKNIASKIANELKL

MINK1 (human) = MINK1 (human) (UniProt Q8N4C8); experiment: SelectScreen, TR FRET
MINK1 (human), sequence (Q8N4C8 whole entry, looked up): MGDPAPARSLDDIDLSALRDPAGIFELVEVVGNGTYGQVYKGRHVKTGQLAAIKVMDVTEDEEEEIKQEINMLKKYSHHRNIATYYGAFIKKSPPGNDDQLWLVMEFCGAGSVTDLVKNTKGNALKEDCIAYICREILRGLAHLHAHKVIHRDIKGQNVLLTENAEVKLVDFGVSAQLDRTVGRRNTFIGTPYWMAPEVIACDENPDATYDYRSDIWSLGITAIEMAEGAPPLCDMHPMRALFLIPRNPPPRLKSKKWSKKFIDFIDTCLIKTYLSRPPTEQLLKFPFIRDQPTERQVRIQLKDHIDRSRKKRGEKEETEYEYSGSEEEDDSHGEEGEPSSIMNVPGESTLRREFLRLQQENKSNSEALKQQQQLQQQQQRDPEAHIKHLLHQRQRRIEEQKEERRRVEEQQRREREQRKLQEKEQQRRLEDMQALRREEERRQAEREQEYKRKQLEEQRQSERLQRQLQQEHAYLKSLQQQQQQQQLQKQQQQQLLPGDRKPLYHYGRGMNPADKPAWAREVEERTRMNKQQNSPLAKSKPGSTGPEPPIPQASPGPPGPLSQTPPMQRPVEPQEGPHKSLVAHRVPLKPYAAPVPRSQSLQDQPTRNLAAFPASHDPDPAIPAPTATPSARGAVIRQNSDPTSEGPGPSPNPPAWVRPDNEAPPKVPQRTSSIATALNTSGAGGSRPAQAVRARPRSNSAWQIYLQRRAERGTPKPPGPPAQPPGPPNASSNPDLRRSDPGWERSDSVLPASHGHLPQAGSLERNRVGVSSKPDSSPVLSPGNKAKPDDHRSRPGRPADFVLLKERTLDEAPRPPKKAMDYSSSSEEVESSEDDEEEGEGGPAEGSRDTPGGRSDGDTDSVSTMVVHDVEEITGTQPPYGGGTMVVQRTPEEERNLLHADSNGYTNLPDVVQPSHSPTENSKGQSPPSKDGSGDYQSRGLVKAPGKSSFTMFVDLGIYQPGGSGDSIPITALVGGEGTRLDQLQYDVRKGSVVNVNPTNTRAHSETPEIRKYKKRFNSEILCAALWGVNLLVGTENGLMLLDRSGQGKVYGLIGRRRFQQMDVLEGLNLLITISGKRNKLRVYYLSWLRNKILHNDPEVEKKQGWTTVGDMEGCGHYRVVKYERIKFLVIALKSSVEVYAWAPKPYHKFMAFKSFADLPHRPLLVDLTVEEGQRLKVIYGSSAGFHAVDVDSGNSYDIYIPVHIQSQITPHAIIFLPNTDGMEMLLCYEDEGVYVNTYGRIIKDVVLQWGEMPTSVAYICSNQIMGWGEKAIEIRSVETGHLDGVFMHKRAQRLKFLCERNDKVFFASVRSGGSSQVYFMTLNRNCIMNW

MST4 (human) = MST4 (human) (UniProt Q9P289); experiment: SelectScreen, TR FRET
NTRK1 (human) = NTRK1 (human) (UniProt P04629); experiment: SelectScreen, TR FRET
NTRK1 (human), sequence (P04629 whole entry, looked up): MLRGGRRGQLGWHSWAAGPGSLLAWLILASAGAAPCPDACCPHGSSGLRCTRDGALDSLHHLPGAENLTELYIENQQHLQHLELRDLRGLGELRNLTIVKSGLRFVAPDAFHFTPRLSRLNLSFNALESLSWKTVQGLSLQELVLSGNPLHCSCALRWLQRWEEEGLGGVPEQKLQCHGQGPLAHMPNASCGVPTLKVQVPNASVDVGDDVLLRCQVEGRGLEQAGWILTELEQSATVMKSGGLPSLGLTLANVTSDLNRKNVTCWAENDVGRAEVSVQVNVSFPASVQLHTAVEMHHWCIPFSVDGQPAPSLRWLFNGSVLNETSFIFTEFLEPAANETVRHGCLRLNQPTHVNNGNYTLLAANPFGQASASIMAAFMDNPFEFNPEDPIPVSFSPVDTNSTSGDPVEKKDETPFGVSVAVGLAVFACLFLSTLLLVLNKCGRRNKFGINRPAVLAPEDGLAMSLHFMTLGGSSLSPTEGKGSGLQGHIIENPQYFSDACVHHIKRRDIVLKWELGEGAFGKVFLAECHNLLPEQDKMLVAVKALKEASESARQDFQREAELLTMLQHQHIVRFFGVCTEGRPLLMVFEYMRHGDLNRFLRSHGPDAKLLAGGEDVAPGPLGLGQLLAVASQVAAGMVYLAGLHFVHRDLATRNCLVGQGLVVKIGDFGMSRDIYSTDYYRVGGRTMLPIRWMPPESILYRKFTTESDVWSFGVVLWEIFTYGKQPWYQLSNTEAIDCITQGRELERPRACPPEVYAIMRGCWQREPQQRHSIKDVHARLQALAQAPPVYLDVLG

PLK1 (human) = PLK1 (human) (UniProt P53350); experiment: SelectScreen, TR FRET
SRC (human) = SRC (human) (UniProt P12931); experiment: SelectScreen, TR FRET
SRC (human), sequence (P12931 whole entry, looked up): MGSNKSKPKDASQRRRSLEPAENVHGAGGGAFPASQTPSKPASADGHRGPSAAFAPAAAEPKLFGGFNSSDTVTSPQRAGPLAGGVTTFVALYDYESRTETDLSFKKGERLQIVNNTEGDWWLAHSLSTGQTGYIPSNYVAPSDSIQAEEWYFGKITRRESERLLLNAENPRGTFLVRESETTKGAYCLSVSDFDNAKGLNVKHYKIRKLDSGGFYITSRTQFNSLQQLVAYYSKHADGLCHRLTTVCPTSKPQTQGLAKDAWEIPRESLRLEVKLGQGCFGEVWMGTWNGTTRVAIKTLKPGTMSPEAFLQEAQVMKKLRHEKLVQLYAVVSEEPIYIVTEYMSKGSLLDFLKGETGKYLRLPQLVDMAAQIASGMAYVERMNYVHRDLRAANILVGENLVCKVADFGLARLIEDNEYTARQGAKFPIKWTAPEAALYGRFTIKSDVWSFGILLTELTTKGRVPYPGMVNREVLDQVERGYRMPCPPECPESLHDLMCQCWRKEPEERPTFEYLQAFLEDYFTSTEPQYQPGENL

TBK1 (human) = TBK1 (human) (UniProt Q9UHD2); experiment: SelectScreen, TR FRET
TYK2 JH1 JH2 (human) = TYK2 JH1 JH2 (human) (UniProt P29597); experiment: SelectScreen, TR FRET
TYK2 JH1 JH2 (human), sequence (P29597 whole entry, looked up): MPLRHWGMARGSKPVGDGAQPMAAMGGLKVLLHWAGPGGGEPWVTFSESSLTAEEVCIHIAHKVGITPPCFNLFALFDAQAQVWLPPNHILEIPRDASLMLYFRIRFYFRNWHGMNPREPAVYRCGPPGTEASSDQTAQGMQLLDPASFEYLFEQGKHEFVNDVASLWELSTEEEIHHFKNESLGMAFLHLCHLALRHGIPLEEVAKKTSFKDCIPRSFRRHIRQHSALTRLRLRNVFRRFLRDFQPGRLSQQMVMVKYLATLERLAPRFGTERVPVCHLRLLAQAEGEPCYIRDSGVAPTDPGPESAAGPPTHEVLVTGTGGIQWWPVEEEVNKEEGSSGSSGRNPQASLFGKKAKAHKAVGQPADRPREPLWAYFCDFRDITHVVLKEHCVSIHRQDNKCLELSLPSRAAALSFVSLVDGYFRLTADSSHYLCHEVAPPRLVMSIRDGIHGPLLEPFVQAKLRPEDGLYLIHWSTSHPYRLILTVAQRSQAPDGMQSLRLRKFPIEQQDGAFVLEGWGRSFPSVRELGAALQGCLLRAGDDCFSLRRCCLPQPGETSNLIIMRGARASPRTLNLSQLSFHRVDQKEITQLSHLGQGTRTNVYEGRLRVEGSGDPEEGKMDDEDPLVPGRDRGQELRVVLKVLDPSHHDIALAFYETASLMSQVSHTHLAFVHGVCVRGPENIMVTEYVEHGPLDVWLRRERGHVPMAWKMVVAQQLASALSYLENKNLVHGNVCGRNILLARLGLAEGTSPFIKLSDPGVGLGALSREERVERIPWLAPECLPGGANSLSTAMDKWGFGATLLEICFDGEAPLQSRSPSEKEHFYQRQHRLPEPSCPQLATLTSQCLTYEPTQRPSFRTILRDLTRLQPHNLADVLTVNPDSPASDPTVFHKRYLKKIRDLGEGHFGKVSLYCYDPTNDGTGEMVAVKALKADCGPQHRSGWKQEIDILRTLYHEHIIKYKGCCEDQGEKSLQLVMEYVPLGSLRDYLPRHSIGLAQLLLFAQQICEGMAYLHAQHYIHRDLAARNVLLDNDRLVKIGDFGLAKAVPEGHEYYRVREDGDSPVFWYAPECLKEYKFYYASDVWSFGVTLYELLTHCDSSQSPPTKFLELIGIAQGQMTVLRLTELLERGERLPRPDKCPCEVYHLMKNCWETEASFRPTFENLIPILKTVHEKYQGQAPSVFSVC

[1] = tested on: MET (human), P08581 [M1250T]; experiment: Caliper, Mobility shift assay off-chip

MAPK8 (human), sequence (P45983 whole entry, looked up): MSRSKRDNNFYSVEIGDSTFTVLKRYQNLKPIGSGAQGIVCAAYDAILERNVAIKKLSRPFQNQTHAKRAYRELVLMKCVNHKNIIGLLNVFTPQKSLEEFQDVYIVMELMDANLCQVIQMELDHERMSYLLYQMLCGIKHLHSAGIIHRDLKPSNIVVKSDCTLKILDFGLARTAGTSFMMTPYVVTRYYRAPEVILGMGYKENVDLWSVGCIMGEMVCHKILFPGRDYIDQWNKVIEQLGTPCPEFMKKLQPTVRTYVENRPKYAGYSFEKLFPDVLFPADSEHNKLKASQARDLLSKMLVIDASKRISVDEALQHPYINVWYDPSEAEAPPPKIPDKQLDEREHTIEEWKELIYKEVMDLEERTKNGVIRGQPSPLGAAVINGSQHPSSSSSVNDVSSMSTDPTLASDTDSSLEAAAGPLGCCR

SMILES: Cn1cc(-c2cnc3ccc4ccc(CC(=O)NCc5ccccn5)cc4c(=O)c3c2)cn1
- inhibition (ABL1 (human); compound 0.1 µM): 19.9%
- inhibition (ABL1 (human); compound 1.0 µM): 14.1%
- inhibition (ABL1 (human); compound 10.0 µM): 81.7%
- inhibition (ERBB2 (human); compound 0.1 µM): -4.3%
- inhibition (ERBB2 (human); compound 1.0 µM): 2.2%
- inhibition (ERBB2 (human); compound 10.0 µM): -10.5%
- inhibition (KDR (human); compound 0.1 µM): 20%
- inhibition (KDR (human); compound 1.0 µM): 54.7%
- inhibition (KDR (human); compound 10.0 µM): 93.9%
- inhibition (MAPK13 (human); compound 0.1 µM): 14.5%
- inhibition (MAPK13 (human); compound 1.0 µM): 15.8%
- inhibition (MAPK13 (human); compound 10.0 µM): 10%
- inhibition (MAPK8 (human); compound 0.1 µM): 2.8%
- inhibition (MAPK8 (human); compound 1.0 µM): 0.1%
- inhibition (MAPK8 (human); compound 10.0 µM): 6.2%
- inhibition (MAPK9 (human); compound 0.1 µM): -1.5%
- inhibition (MAPK9 (human); compound 1.0 µM): 3.7%
- inhibition (MAPK9 (human); compound 10.0 µM): 10.8%
- inhibition (MARK2 (human); compound 0.1 µM): 12.1%
- inhibition (MARK2 (human); compound 1.0 µM): 14.2%
- inhibition (MARK2 (human); compound 10.0 µM): 19.7%
- inhibition (MINK1 (human); compound 0.1 µM): 19.9%
- inhibition (MINK1 (human); compound 1.0 µM): 29.2%
- inhibition (MINK1 (human); compound 10.0 µM): 71.1%
- inhibition (MST4 (human); compound 0.1 µM): 6.9%
- inhibition (MST4 (human); compound 1.0 µM): 2.2%
- inhibition (MST4 (human); compound 10.0 µM): -39.8%
- inhibition (NTRK1 (human); compound 0.1 µM): 18.9%
- inhibition (NTRK1 (human); compound 1.0 µM): 37.2%
- inhibition (NTRK1 (human); compound 10.0 µM): 68.9%
- inhibition (PLK1 (human); compound 0.1 µM): 8.9%
- inhibition (PLK1 (human); compound 1.0 µM): 11.2%
- inhibition (PLK1 (human); compound 10.0 µM): 10%
- inhibition (SRC (human); compound 0.1 µM): 3.7%
- inhibition (SRC (human); compound 1.0 µM): 7.4%
- inhibition (SRC (human); compound 10.0 µM): 15%
- inhibition (TBK1 (human); compound 0.1 µM): -1.6%
- inhibition (TBK1 (human); compound 1.0 µM): 7.8%
- inhibition (TBK1 (human); compound 10.0 µM): 33.2%
- inhibition (TYK2 JH1 JH2 (human); compound 0.1 µM): 5.1%
- inhibition (TYK2 JH1 JH2 (human); compound 1.0 µM): 8%
- inhibition (TYK2 JH1 JH2 (human); compound 10.0 µM): 23.7%

SMILES: O=C(CCc1ccc2ccc3ncc(C4CCNCC4)cc3c(=O)c2c1)NCc1ccccn1
- inhibition ([1]; compound 0.1 µM): 87%
- inhibition ([1]; compound 1.0 µM): 98.4%
